From patent publication EP4818177A1, “TRICYCLIC DERIVATIVE INHIBITOR, AND PREPARATION METHOD AND USE THEREFOR” (Shanghai Hansoh Biomedical Co., Ltd., priority 2023, dated 2025)

Key:
[1] = system: MTAP Knockout HCT116 cells; assay: Cell proliferation inhibition (CellTiter-Glo), MTAP knockout cells; assay type: cell-based; details: for Selectivity: HCT116 versus MTAP Knockout HCT116; for IC50: 72-240 hours incubation, CellTiter-Glo
From the text: (§1) Test Example 2: Determination of the inhibitory effect of the compounds of the present invention on the proliferation activity of HCT116 and MTAP Knockout HCT116 cells.
(§2) 1. Experimental objective: to determine the inhibitory effect of the compound on the proliferation activity of HCT116 wild-type and HCT116 MTAP knockout cells. 2. Experimental instruments: Centrifuge (Eppendorf 5810R); microplate reader (BioTek Synergy H1 or PerkinElmer Envision); pipette (Eppendorf or Rainin). 3. Experimental reagents: HCT116 and MTAP Knockout HCT116 cells were purchased from Nanjing Cobioer; Cell Titer-Glo was purchased from Promega (Cat. No. G7573); McCoy' 5A was purchased from Gibco (Cat. No. 12330031); FBS was purchased from Gibco (Cat. No. 10091148); PBS was purchased from Gibco (Cat. No. 10010023); trypsin was purchased from Gibco (Cat. No. 25200056); cell culture plates were purchased from Corning (Cat. No. 3610). 4. Experimental methods: HCT116 and MTAP Knockout HCT116 cells were cultured in McCoy'5A medium containing 10% FBS until an appropriate cell density was reached. The cells were then collected and adjusted to a suitable concentration using complete medium. The cell suspension was seeded into a 96-well plate at 90 µL per well and allowed to adhere overnight in a 37°C, 5% CO2 incubator. Compound solutions of various concentrations were prepared using DMSO and culture medium, with a vehicle control set. The compound solutions were added to the 96-well plate at 10 µL per well, and the plate was incubated in a 37°C, 5% CO2 incubator for an additional 72-240 hours. After incubation, CellTiter-Glo solution was added, and the mixture was mixed uniformly by shaking, followed by incubation in the dark for 10 to 30 minutes. Luminescence was measured using a Synergy H1 or Envision microplate reader. 5. Experimental data processing method: The inhibition rate was calculated using the luminescence signal values, and the concentrations along with the inhibition rates were subjected to non-linear regression curve fitting using Graphpad Prism software to obtain the IC50 values.

in vivo = details: rat, po, 5 mg/kg
Procedure: (§3) Test Example 4: Determination of the pharmacokinetics of the compounds of the present invention in rats (plasma) after oral administration.
(§4) Study objective: SD rats were used as test animals to study the pharmacokinetic behaviour of the following example compounds in rats (plasma) after oral administration at a dose of 5 mg/kg. […] Test scheme 2.1 Test drugs: Vehicle formula: 0.5% CMC-Na (1% Tween 80); the examples of the present invention, prepared in house. 2.2 Test animals: 3 SD rats per group, male, purchased from Shanghai Bikai Keyi Biotechnology Co., Ltd., with animal license number (SCXK (Shanghai) 2018-0006, No.20180006037467). 2.3 Administration: 3 SD rats per group, male, were fasted overnight and then respectively administered PO at a dose of 5 mg/kg and a volume of 10 mL/kg. 2.4 Sample collection: 0.2 mL of blood was collected from the jugular vein of rats before administration and at 0, 0.25, 0.5, 1, 2, 4, 6, 8 and 24 h after administration, and placed in EDTA-K2test tubes, and the test tubes were centrifuged at 6,000 rpm at 4°C for 6 min to separate the plasma, which was stored at -80°C. The animals were fed 4 h after administration. 2.5 Sample treatment • 1) 160 uL of acetonitrile was added to 40 uL of plasma sample for precipitation, and after mixing, the mixture was centrifuged at 3,500 × g for 5-20 minutes. • 2) 100 uL of the treated supernatant solution was taken for LC/MS/MS analysis to determine the concentration of the test compounds. 2.6 Liquid phase analysis • Liquid phase conditions: Shimadzu LC-20AD pump; • Mass spectrometry conditions: AB Sciex API 4000 mass spectrometer; • Chromatographic column: phenomenex Gemiu 5 um C18 50 × 4.6 mm; • Mobile phase: solution A: 0.1% formic acid in water, solution B: methanol; • flow rate: 1.0 mL/min; Elution time: 0-4.0 min, with eluents as follows:
(§5) Experimental results and analysis: The main pharmacokinetic parameters were calculated using WinNonlin 8.2.

HCT116 wild-type cells = assay: Cell proliferation inhibition (CellTiter-Glo), wild-type cells; assay type: cell-based; details: 72-240 hours incubation
From the text: as §1, §2

[2] = biological target: T1, PRMT5/MEP50-MTA protein complex (Homo sapiens, UniProt O14744); assay: Thermal shift assay: change in melting temperature of the PRMT5/MEP50-MTA protein complex; assay type: binding; details: compound 8 µM, PRMT5/MEP50 2 µM, MTA 2 µM; Tm minus DMSO vehicle control
T1 construct: purchased Viva Biotech
Outline: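 Human PRMT5/MEP50 (2 µM) preincubated 30 min at room temperature in 50 mM HEPES, 10 mM DTT, 250 mM NaCl with 2 µM MTA and SYPRO Orange. Compound at 8 µM final, 10 min at room temperature, 2.5% DMSO vehicle control. Melt curve 25→95°C at 0.03°C/s gives Tm.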

hERG potassium channel = biological target: T2, hERG potassium channel (Homo sapiens, UniProt Q12809); assay: hERG potassium channel inhibitory activity assay (patch clamp, CHO-hERG cells); assay type: cell-based; details: tail current, read-out: inhibitory activity (IC50) against the cardiac hERG potassium channel
T2 construct: host or cells: CHO cells stably expressing hERG (CHO-hERG)
From the text: Test Example 5: hERG potassium channel inhibitory activity assay
1. Study objective: to determine the inhibitory effect of the compound on the hERG potassium channel activity. 2. Experimental instruments and reagents: 2.1 Reagents
3. Experimental methods • 3.1 Cell culture: The CHO cells stably expressing the hERG potassium channel (CHO-hERG) used in the experiment were obtained from Sophion Bioscience (Ballerup, Denmark), and passaged and cryopreserved at WuXi AppTec Co., Ltd. in Shanghai. The CHO-hERG cells were cultured and passaged in Ham's F-12 medium containing 1 × GlutaMAX, 10% fetal bovine serum, 100 µg/mL G418 and 100 µg/mL hygromycin B at 37°C with 5% CO2. • 3.2 Preparation of intracellular and extracellular solutions: The extracellular solution was prepared once a month, and aliquoted and stored in 1 L storage bottles. The intracellular solution was prepared once every three months, and aliquoted and cryopreserved at -20°C. The intracellular solution was thawed in a 37°C water bath before the experiment and then placed in an ice bath for later use. • 3.3 Preparation of compounds: The compounds were dissolved in 100% DMSO (Sigma-Aldrich, D2650) to prepare 10 mM or 30 mM stock solutions. Before the experiment, the stock solutions of the test compounds were diluted with DMSO to prepare solutions 1000-fold or 333-fold higher than the desired test concentrations, and then further diluted 1000-fold or 333-fold with the extracellular solution to achieve the desired concentrations. • 3.4 Cell preparation: The CHO-hERG cells used in the experiment were cultured for at least two days. When the cell density reached more than 75%, the cells were digested with TrypLE, then resuspended in the extracellular solution, and centrifuged. The supernatant was discarded, and then the cells were further resuspended in 2 mL of extracellular solution for later use. 4. Experimental data processing: In data processing, the peak tail current was baseline-corrected when evaluating the hERG blocking effect. The effect of each compound at various concentrations was expressed as the inhibition rate of the tail current. IC50 values were obtained by fitting the data to the Hill equation: I/Icontrol = Bottom + (Top−Bottom)/(1+10^(∧)((LogIC50−X)*HillSlope)) [formula] • Top: maximum effect; Bottom: minimum effect; Hillslope: slope; X: concentration of the test compound. • IC50: half-maximal inhibitory concentration of the test compound on hERG. […] 5.

[3] = Pharmacokinetics in rats (plasma) after oral administration; details: rat, 5 mg/kg
Procedure: as §3, §4, §5

[4] = Homo sapiens, HCT-116, MTAP Knockout HCT116 cells
[5] = Homo sapiens, HCT-116, HCT116 wild-type cells

T1 sequence (O14744 whole entry): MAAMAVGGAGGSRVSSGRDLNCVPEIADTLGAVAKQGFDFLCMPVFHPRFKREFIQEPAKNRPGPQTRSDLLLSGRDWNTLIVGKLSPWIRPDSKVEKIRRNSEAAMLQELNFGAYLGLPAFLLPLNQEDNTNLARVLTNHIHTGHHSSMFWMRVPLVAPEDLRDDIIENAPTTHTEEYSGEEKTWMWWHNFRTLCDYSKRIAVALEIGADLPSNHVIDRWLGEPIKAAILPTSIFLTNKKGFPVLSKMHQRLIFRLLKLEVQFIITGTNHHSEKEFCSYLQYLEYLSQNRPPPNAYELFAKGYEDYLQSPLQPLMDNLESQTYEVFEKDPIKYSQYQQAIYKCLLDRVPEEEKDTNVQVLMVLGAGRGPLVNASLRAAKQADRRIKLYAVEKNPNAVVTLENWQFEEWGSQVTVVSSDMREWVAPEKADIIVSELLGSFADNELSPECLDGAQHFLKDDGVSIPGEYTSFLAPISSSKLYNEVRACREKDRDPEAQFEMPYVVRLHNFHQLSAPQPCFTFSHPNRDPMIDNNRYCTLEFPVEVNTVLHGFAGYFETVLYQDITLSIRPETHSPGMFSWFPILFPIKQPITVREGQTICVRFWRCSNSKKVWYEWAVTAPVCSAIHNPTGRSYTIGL
T1 sequence (Q9BQA1 whole entry partner): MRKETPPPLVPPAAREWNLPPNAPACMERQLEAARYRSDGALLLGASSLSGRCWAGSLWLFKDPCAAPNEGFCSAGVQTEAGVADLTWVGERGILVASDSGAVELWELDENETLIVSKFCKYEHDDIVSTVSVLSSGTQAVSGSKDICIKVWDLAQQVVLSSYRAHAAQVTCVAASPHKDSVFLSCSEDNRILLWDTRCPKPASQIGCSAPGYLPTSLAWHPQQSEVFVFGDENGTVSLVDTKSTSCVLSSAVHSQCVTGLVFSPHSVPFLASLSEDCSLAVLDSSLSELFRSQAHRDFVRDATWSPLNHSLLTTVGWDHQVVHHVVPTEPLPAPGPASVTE
T2 sequence (Q12809 whole entry): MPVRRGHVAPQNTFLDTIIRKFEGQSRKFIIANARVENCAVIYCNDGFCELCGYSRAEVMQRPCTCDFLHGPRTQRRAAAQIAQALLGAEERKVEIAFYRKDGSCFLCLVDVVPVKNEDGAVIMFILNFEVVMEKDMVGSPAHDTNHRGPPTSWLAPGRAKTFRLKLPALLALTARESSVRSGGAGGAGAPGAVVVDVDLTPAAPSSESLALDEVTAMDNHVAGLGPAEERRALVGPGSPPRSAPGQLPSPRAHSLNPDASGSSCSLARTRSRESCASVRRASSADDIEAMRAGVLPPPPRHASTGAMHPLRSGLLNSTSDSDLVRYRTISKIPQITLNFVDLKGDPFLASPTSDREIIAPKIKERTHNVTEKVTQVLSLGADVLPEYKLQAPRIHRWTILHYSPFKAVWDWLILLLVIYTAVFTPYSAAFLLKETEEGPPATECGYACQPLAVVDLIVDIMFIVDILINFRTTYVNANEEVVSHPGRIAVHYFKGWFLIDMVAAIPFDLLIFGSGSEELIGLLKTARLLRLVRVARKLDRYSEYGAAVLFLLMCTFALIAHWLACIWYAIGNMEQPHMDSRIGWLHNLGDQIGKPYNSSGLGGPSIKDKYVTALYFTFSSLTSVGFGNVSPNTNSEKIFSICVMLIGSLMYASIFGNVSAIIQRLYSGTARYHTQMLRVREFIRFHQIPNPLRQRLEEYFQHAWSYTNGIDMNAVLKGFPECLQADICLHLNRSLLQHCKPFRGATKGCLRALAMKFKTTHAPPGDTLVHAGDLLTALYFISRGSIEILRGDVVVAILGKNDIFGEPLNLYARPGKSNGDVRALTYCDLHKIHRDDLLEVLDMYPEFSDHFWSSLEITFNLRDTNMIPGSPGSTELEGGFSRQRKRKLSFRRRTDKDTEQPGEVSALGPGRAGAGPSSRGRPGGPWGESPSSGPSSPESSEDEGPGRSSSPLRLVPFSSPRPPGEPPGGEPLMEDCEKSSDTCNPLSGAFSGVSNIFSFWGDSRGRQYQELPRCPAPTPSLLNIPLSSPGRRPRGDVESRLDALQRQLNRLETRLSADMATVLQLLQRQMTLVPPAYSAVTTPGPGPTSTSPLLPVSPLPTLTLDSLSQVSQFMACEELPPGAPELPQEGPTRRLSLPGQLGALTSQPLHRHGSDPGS

Compound	Selectivity [1]	IC50 [1, 4] [nM]	IC50 (HCT116 wild-type cells; [5]) [nM]	ΔTm at 8 µM [2] [°C]	IC50 (hERG potassium channel) [nM]	AUC(0-inf) ([3]; male, SD) [ng·h/mL]	Cmax ([3]; male, SD) [ng/mL]	MRT inf ([3]; male, SD) [h]	Tmax ([3]; male, SD) [h]	half-life ([3]; male, SD) [h]	further results
CNN(C(=O)c1cc2c3c(c(N)nc2cn1)COC3)C1COc2cc(S(F)(F)(F)(F)F)ccc21 (single isomer, unassigned) [Example 372-P1]	69	12	819	11.6	–	–	–	–	–	–	AUC(0-inf) (in vivo): 2570 ng·h/mL; Cmax (in vivo): 378 ng/mL; MRT inf (in vivo): 4.8 h; Tmax (in vivo): 2.7 h; half-life (in vivo): 2.7 h
[2H]C([2H])([2H])NN(C(=O)c1cc2c(cn1)nc(N)c1cnn(C)c12)C1COCc2c1ccn1c(C(F)(F)F)cnc21 (single isomer, unassigned) [Example 391-P1]	14	–	–	–	> 30000	–	–	–	–	–	IC50 ([1]; MTAP Knockout HCT116 cells): 8.8 nM; IC50 (HCT116 wild-type cells; HCT116 wild-type cells): 121 nM; ΔTm (°C) [2]: 13.02 °C
Cc1cc2nc(N)c3cncn3c2cc1C(=O)N(C1COCc2nc(C(F)(F)F)ccc21)N(C)C (centres unmarked) [Example 276, 4-Amino-N',N',7-trimethyl-N-(2-(trifluoromethyl)-5,8-dihydro-6H-pyrano[3,4-b]pyridin-5-yl)imidazo[1,5-a]quinoxaline-8-carbohydrazide]	–	–	–	10.4	> 30000	–	–	–	–	–	–
CNN(C(=O)c1cc2c3c(c(N)nc2cn1)COC3)[C@@H]1COCc2nc(C(F)(F)F)ccc21 [Example 286-P1, (S)-4-amino-N'-methyl-N-(2-trifluoromethyl-5,8-dihydro-6H-pyrano[3,4-b]pyridin-5-yl)-1,3-dihydrofuro[3,4-c][1,7]naphthyridine-8-carbohydrazide]	118	23	2680	11.1	> 30000	1280	480	2.5	0.5	2.1	–
[2H]C([2H])([2H])NN(C(=O)c1cc2c3c(c(N)nc2cn1)COC3)C1COCc2nc(C(F)(F)F)ccc21 (centres unmarked) [Example 321]	–	–	–	10.9	> 30000	–	–	–	–	–	–
[2H]C([2H])([2H])NN(C(=O)c1cc2c3c(c(N)nc2cc1C)COC3)C1COCc2c1ccn1c(C(F)(F)F)cnc21 (centres unmarked) [Example 357, 4-Amino-7-methyl-N'-methyl-d3-N-(3-trifluoromethyl-7,10-dihydro-8H-imidazo[1,2-a]pyrano[3,4-c]pyridin-7-yl)-1,3-dihydrofuro[3,4-c]quinoline-8-carbohydrazide]	100	7.6	760	12.2	–	1080	360	2.2	0.7	1.2	–
[2H]C([2H])([2H])NN(C(=O)c1cc2c3c(c(N)nc2cn1)[C@@H](C)OC3)[C@@H]1COCc2c1ccn1c(C(F)(F)F)cnc21 [Example 362-P1]	68	6.7	450	12	> 30000	–	–	–	–	–	AUC(0-inf) [3]: 8180 ng·h/mL; Cmax [3]: 2750 ng/mL; MRT inf [3]: 2.8 h; Tmax [3]: 0.7 h; half-life [3]: 2.7 h
[2H]C([2H])([2H])NN(C(=O)c1cc2c3c(c(N)nc2cn1)COC3)C1COCc2c1ccn1c(C(F)(F)F)cnc21 (centres unmarked) [Example 371, 4-Amino-N'-(methyl-d3)-N-(3-(trifluoromethyl)-7,10-dihydro-8H-imidazo[1,2-a]pyrano[3,4-c]pyridin-7-yl)-1,3-dihydrofuro[3,4-c][1,7]naphthyridine-8-carbohydrazide]	–	–	–	10.6	> 30000	3730	1050	4.4	0.5	4.4	–
CNN(C(=O)c1cc2c3c(c(N)nc2cn1)COC3)[C@@H]1COCc2nc(S(F)(F)(F)(F)F)ccc21 [Example 374, 4-Amino-N'-methyl-N-(2-pentafluorosulphanyl-5,8-dihydro-6H-pyrano[3,4-b]pyridin-5-yl)-1,3-dihydrofuran[3,4-c][1,7]naphthyridine-8-hydrazide]	23	13	303	12.3	> 30000	–	–	–	–	–	AUC(0-inf) [3]: 1180 ng·h/mL; Cmax [3]: 652 ng/mL; MRT inf [3]: 1.9 h; Tmax [3]: 0.5 h; half-life [3]: 1.9 h
[2H]C([2H])([2H])NN(C(=O)c1cc2c(cn1)nc(N)c1cnn(C)c12)C1COCc2c1ccn1c(C(F)(F)F)cnc21 (centres unmarked) [Example 391, 4-Amino-1-methyl-N'-(methyl-d3)-N-(3-trifluoromethyl-7,10-dihydro-8H-imidazo[1,2-a]pyrano[3,4-c]pyridin-7-yl)-1H-pyrazolo[4,3-c][1,7]naphthyridine-8-carbohydrazide]	28	13	–	12.7	> 30000	11900	1690	5.8	1.5	4.4	IC50 (HCT116 wild-type cells; HCT116 wild-type cells): 358 nM
[2H]C([2H])([2H])NN(C(=O)c1ccc2nc(N)c3cnn(C)c3c2c1)C1COCc2c1ccn1c(C(F)(F)F)cnc21 (centres unmarked) [Example 436]	185	8.9	1640	11.5	–	2030	143	14.9	3.3	10.8	–
